# In patent publication US8603493B2, “Carbosilane dendrimers, preparation method thereof and use of same” (Dendrico, S.L., priority 2005, dated 2013):
# Columns and labels:
# [1] = test system: PBMC; assay: Staining with Trypan Blue of PBMC treated with dendriplexes or dendrimers; details: 72 hours, (+/−)=2/1, IM8 3.93 μM, IM16 1.99 μM, ClNH4 3.98 μM, Phe 1.96 μM, NN 3.94 μM, SF 0.68 μM, G4 100 μM, PPT 0.88 μM (0.34 μM with SF, 1 μM with G4), n = 100 cells per count
# [2] = test system: PBMC; assay: Flow cytometry test (size and complexity; live cells vs apoptosis-necrosis); format: cell-based, human; details: 72 hours, same concentrations as Trypan Blue test
# Description: The evaluation time on this occasion was 72 hours. The toxicity was evaluated on PBMC, produced in the manner described in Example 38. […] The ODN used was PPT, in the following way: • [ODN PPT] in the complex with the CBS: 2.57 (0.88 μM) • [ODN PPT] in the complex with SF: 0.34 μM • [ODN PPT] in the complex with G4: 1 μM […] The cells were either incubated with said complexes, a mixture of equal volume which contained ODN without CBS, a mixture which contained dendrimer alone, or with a mixture which contained only RPMI+complete medium which was used as negative control. The cells and/or the supernatant were then collected to be analysed by flow cytometry, confocal microscopy or cell DNA extraction. The percentages of cells with size and complexity corresponding to cells in apoptosis-necrosis were compared with the live cells. For this, the size (FW) and the complexity (SD) was evaluated by flow cytometry. To do this, a region was drawn around the cells with FW and SD corresponding to cells in apoptosis-necrosis and another around the cells with FW and SD corresponding to live cells. The percentages of cells present in each slide were compared. The graphics produced are shown in FIG. 15, wherein the X-axis represents the size (FW) and the Y-axis the complexity (SD). […] The cloud of dark cells corresponds to cells in apoptosis necrosis. The live cells are represented in grey.
# [3] = test system: erythrocytes; assay: Haemolysis test (haemoglobin release after 1 hour); format: cell-based; details: positive control, 0.2% Triton X-100
# Description: A visual examination was carried out to detect the presence/absence of hemagglutination and quantification of haemoglobin release (haemolysis test) by spectrophotometry. ClNH4 was excluded from the dendrimers of previous Example 38, as the result had been more toxic for lymphocytes, and the results were compared with those produced for a PAMAN type generation 4 dendrimer.
# The erythrocytes were obtained after being separated from the PBMC using the same Ficoll gradient cited in the previous Example. They were diluted in PBS to be able to view them individually. The cells were resuspended in 500 μl of PBS and were seeded in a 24-well plate (300,000/well). As positive control, cells treated with 0.2% Triton X-100 were used. Negative control: PBS (blank). The erythrocytes were incubated with different dendrimer concentrations. The presence of hemagglutination, number of cells and release of haemoglobin by hour were evaluated by collecting 100 μl of supernatant and measuring absorbencies by spectrophotometry using a plate reader at a wavelength of 550 nm and 690 nm as reference.
# 100% haemolysis in the control of Triton X-100 (the cells treated with Triton were all dead and broken). […] Each well is expressed as the percentage with respect to the O.D. (optical density) of Triton X-100, which is considered 100%; in addition to that percentage 7% of the control is subtracted. […]
# [4] = test system: PBMC; assay: Lymphoproliferative test (tritiated thymidine); format: cell-based, human; details: positive control, 1 μg/mL, 5 days, tested 12 times
# Description: To evaluate the antigenic capacity of CBS dendrimers, a lymphoproliferative test was performed. The experiment was prepared in triplicate in a 96-well flat bottomed plate (100,000 cells per well in 200 μl of complete human AB medium with antibiotics, glutamine and 10% AB serum). […] After 5 days of incubation at 37° C. with 5% atmosphere of CO2 100 μl of supernatant was removed, then adding 100 μL of a medium with an isotopic intercalating agent of DNA, tritiated thymidine (prepared with 10% AB medium and Thymidine 1/100). The plate was then filtered using a Harvester passing its content through a filter, which was left to dry overnight (approx. 16 hours). After this period, a sheet of Methylex® containing scintillation medium was heat-melted, and it was read in a gamma camera to evaluate the number of counts (greater the counts, more proliferation). The results, which are shown below in Table 8, are expressed as tritiated thymidine counts per minute (cpm). Each result of each concentration was performed in triplicate, the value which appears in the table being the average of the 3. The PHA and the control were tested 12 times.
# [5] = test system: ODN; assay: Complex formation between CBS and ODN (agarose gel electrophoresis); format: binding; details: 3% agarose gel, RPMI, excess positive charge (+/−) 2/1 and higher
# Description: The oligonucleotidic sequences used were antisense sequences (complementary) directed against HIV RNA. The length varied from 15 to 28 bases, being of phosphorothioate nature. The specific ODN used and their sequences are shown below in Table 1.
# Several of the ODN were used fluorescent at the 5′ end. This is indicated by adding the letter F to its notation. Thus, “GF” makes reference to the fluorescent anti-gag ODN at end 5′, whilst “RF” makes reference to the anti-Rev ODN fluorescent at end 5′.
# Different agarose concentrations were used to show the migration of the ODN and the dendriplexes, bearing in mind the small size of the ODN used. Finally, a 3% agarose concentration in TAE 1× was chosen as the best. The migration of non-fluorescent ODNs was compared with fluorescent ones, both migrating at the same height but the latter increasing the signal perceived considerably. Using them, it thus avoided the isotopic labelling of the ODN. A double well was manufactured to prepare these gels, to permit load volumes of 60 μl, of which 50 μl was mixture volume of the samples in RPMI and 10 μl load buffer with glycerol. As size marker, a ladder of 100 base pairs was used (Gibco BRL®).
# For the complex formations in all the tests performed, both on gels and on cells the ratio between the number of positive and negative charges in said complex was taken. As published by different authors in studies with PAMAM dendrimers, it is necessary that the complex formed has an excess positive charge to facilitate its binding to the cell membrane glycoproteins, negatively charged, thus starting the endocytosis process. Likewise, an excess of positive charge is added to ensure the formation of the dendrimer-DNA complex. Therefore, the complexes between the CBS dendrimers and the different nucleic acids were formed in excess number of positive charges (provided by the CBS) compared with negative charges (provided by the ODN). Nevertheless, different charge ratios were tested, making the calculations based in the number of dendrimer charges (fixed) and the number of negative charges of the ODN (also fixed). The 2/1 ratio of positive/negative charges was fixed as sufficient in all dendrimers to form the complexes with a total positive charge, although in some experiments a balance was provided of an equal number of negative charges as positive charges or excess negative charges.
# In all the tests, a complex formation volume of 60 μl was used, using phenol red without RPMI serum as support medium.
# Tests of complex formation were used with the dendrimers of the invention IM8, ClNH4, NN, Phe and IM16.
# The synthesis process of the CBS used in this work begins from an initial nucleus of common structure, which is ended functionalizing in the periphery by the use of different functional groups, which are those which provide the positive charge to the dendrimer and determine the differences between themselves, the dendrimeric nucleus being of apolar nature. Since some of the bonds of the functional groups used to the dendrimeric nucleus could be unstable in aqueous solution, tests were performed to determine if the DNA retention in agarose gels and, therefore, the complex formation between the CBS and the DNA could be due to the total dendrimer structure being conserved or in contrast, the terminal functional groups came away from the moiety of the dendrimeric core which are responsible for the DNA retention. For this, gels were used in which complexes were formed between the ODNs and the integral CBS and those formed supposedly between the ODNs and the terminal functional groups with which the carbosilane skeleton had functionalized, in this case quaternized dimethylethanolamine. As has previously been commented, those positively charged molecules, which are bound to the dendrimer as terminal functional groups, are those which give the dendrimer its charge. As control, the mixtures of ODN-dendrimers, ODN-monomers and ODN alone were compared. […]
substance,measurement,setting,value
"PPT: antisense phosphorothioate ODN against HIV mRNA, AATTTTCTTTTCGCCCCT (SEQ ID NO: 3), 18 bases [reference compound]","TB+ (%), cells stained with Trypan Blue",[1],11.9%
same,Apoptosis-necrosis (%),[2],23%
same,Live cells (%),[2],71%
Triton X-100,haemolysis,[3],100%
"phytohemagglutinin [PHA, reference compound]",Measurement of the scintillation counter (tritiated thymidine counts),[4],10267 cpm
"quaternized dimethylethanolamine [monomers, reference compound]",complex formation with ODN (retention of DNA migration in gel),[5],not being capable
